From US8058309B2, “Protein kinase modulators and therapeutic uses thereof” (Novotyr Therapeutics Ltd., priority 2006, dated 2011)
Entries after “also recorded” stand apart in the source; their conditions may differ. Read-outs that look alike come from different tables or passages of the source.

Experiments:
U138MG = test: Proliferation assay U138MG; type: cell-based; settings: Homo sapiens, U138-MG, Glioma, 72 hours
Procedure: (§1) Various cancer cell lines (listed in table 1) were plated at a density of 1000-5000 cells/well in 96-well plates in 90111 growth medium containing 10% FCS, 100 units/ml penicillin and 100 μg/ml streptomycin. Inhibitors were added a day later in 10 μl of 1% DMSO in DDW to obtain final concentrations of 0, 0.1, 0.3, 1, 3, and 10 μM. The final concentration of DMSO (0.1% DMSO) was kept constant in all samples. Medium with inhibitors was refreshed a day and two days later. Following exposure of the cells to the inhibitors for 72 hours at 37° C., the cells were fixed in 0.5% gluteraldehyde in medium for 10 min, washed three times with DDW, once with 0.1M sodium borate buffer pH 8.5 and stained with 1% methylene blue dissolved in 0.1M borate buffer solution for 60 min. Excess dye was washed out and cell-bound dye was eluted with 200 μl/well of 0.1 M HCl. The optical density value was read at 620 nm in ELISA plate reader. The data was analyzed in Microsoft Excel, using the vehicle control as 100% proliferation. The assays were performed in triplicates. The values in table 1 represent IC50 values derived from the dose-dependent growth curves obtained.
(§2) Compounds 6, 7, 8, and 9 were tested for their inhibitory potential in cell proliferation assay. In this assay cells were exposed to increasing concentrations of the molecules (at 0.1% DMSO in all wells) a day after seeding. Medium and inhibitors were refreshed every day, and following three days of treatment, cells were fixed and stained with methylene-Blue. IC50 values were determined from the curves of the optical density against compound concentration. The assay was performed in triplicates.

IRS1 [1] = test: IRS1 Ser-phosphorylation and IRS1 levels in MCF7 cells; type: cell-based; settings: breast cancer MCF7 cells
Procedure: Tyrosine autophosphorylation of the β-subunit of IGF1R as well as downstream signaling induced by IGF1R were assayed in breast cancer MCF7 cells. Tyrosine autophosphorylation of the EGFR and the EGFR signaling was assayed in prostate cancer PC3 cells. Tyrosine autophosphorylation of the PDGFR and its signaling was assayed in fibroblasts overexpres sing PDGFR. Tyro sine autophosphorylation of the IR and its signaling was assayed in fibroblasts overexpressing IR. Cells were seeded in 6-well plates (MCF7-250,000 cells/well, PC3-150,000 cells/well, fibroblasts-140,000 cells/well) and 24 hours later medium was replaced by serum-free medium (DMEM supplemented with 100 units/ml penicillin and 100 μg/ml streptomycin). Following 20 hours of serum-starvation medium was replaced with medium containing various concentrations of the inhibitors in 0.1% DMSO for additional 4 hours. Cells were then stimulated for 5 min with 50 ng/ml IGF-1 (MCF7 cells), 20 ng/ml EGF (PC3 cells), 50 ng/ml PDGF (fibroblasts overexpressing PDGFR) or 100 nM insulin (fibroblasts overexpressing IR), washed twice with PBS and lysed by boiling sample buffer (10% glycerol, 50 mM Tris-HCl, pH 6.8, 3% SDS, and 5%, β-mercaptoethanol). Equal amounts of protein per lane were separated by 8% SDS-PAGE and transferred to a nitrocellulose membrane (Sartorius AG). Phosphorylated proteins were immunoblotted with anti-phospho-IGF1R (phosphor-IGF1R), anti-phosphotyrosine-IRS1 (phospho-IRS1), anti-phospho(T308)Akt (phospho-PKB), anti-phospho-Erk (phospho-ERK), anti-phosphotyrosine 4G10&PY20 (pY-EGFR or pY-PDGFR), anti-phospho-Ser^636/639-IRS1 (pS^636/639-IRS1) and anti-phospho-STAT3 (phospho-STAT3) antibodies. Detection was performed with horseradish peroxidase-conjugated secondary antibody using the ECL system. Blots were then stripped of antibodies, blocked with TBST with 5% low fat milk and re-probed with antibodies detecting both the phosphorylated and the non-phosphorylated corresponding proteins e.g. IGF1Rβ, IRS1, PKB, ERK, IRβ, PDGFR and Stat3.
(§3) In addition, lysates were prepared from cells exposed to inhibitors at various concentrations for 24 hours in the presence or the absence of FCS without stimulation. Lysate preparation and western blot were the same as described above. Apoptosis was detected by immunoblotting with rabbit anti-PARP antibodies.

QG56 = test: Proliferation assay QG56; type: cell-based; settings: Homo sapiens, QG-56, Lung, 72 hours
Procedure: as §1, §2

LIM 1215 = test: Proliferation assay LIM 1215; type: cell-based; settings: LIM1215, Colon, 72 hours
Procedure: as §1, §2

PC-10 = test: Proliferation assay PC-10; type: cell-based; settings: Homo sapiens, PC10, Lung, 72 hours
Procedure: as §1, §2

MO59K = test: Proliferation assay MO59K; type: cell-based; settings: Glioma, 72 hours
Procedure: as §1, §2

SKBR-3 = test: Proliferation assay SKBR-3; type: cell-based; settings: Homo sapiens, SK-BR-3, Breast, 72 hours
Procedure: as §1, §2

YUMAC = test: Proliferation assay YUMAC; type: cell-based; settings: Homo sapiens
Procedure: as §1, §2

B16 = test: Proliferation assay B16; type: cell-based; settings: Mus musculus, Melanoma, 72 hours
Procedure: as §1, §2

HT29 = test: Clonogenic assay HT29; type: cell-based; settings: Homo sapiens, HT-29, Colon
Procedure: Various cancer cells (listed in table 1) were seeded at a very low concentration (19 cells/well in 96-well plates or 63 cells/well in 24-well plates) in growth medium. A day later medium was replaced with growth medium containing various concentrations of inhibitors in a final concentration of 0.1% DMSO. The inhibitor-containing medium was refreshed three times a week. Following approximately two weeks cells were fixed by adding Gluteraldehide (0.5% final concentration) for 10 min, washed three time with DDW, once with borate buffer 0.1M and stained for 1 hour with 1% Methylene Blue in borate buffer 0.1M. Access stain was washed with water, and following drying colonies were counted. Alternatively, stain was extracted by 0.1N HCl for 1 hour and absorbance at 620 nm was measured by ELISA Reader. The assays were performed in triplicates. The values in table 1 represent IC50 values derived from the dose-dependent growth curves obtained.

Colo-205 = test: Proliferation assay Colo-205; type: cell-based; settings: Homo sapiens, Colon, 72 hours
Procedure: as §1, §2

BAF3 Bcr-Abl = test: Proliferation assay BAF3 Bcr-Abl; type: cell-based; settings: Mus musculus, Pro B, 72 hours
Procedure: as §1, §2

NCl-H526 = test: Proliferation assay NCl-H526; type: cell-based; settings: Lung, 72 hours
Procedure: as §1, §2

U87MG = test: Proliferation assay U87MG; type: cell-based; settings: Homo sapiens, U-87 MG, Glioma, 72 hours
Procedure: as §1, §2

IRS1 [2] = test: IRS1 Ser-phosphorylation in YUMAC cells; type: cell-based, human; settings: metastatic melanoma YUMAC cells
Procedure: as §3

IRS1 [3] = test: IRS1 Ser-phosphorylation and IRS1 levels in A2780 cells; type: cell-based, human; settings: ovarian cancer A2780 cells
Procedure: as §3

[4] = Melanoma, YUMAC, 72 hours, read-out: Proliferation assay IC50
[5] = Table 4, 72 hours incubation, read-out: Inhibition of human metastatic melanoma cells, YUMAC IC50

SMILES | IC50 (U138MG) [µM] | Cellular levels of IRS1 (IRS1 [1]) | IC50 (QG56) [µM] | IC50 (LIM 1215) [µM] | IC50 (PC-10) [µM] | IC50 (MO59K) [µM] | IC50 (SKBR-3) [µM] | IC50 (YUMAC; [4]) [µM] | IC50 (YUMAC; [5]) [µM] | IC50 (B16) [µM] | IC50 (HT29) [µM] | IC50 (Colo-205) [µM] | IC50 (BAF3 Bcr-Abl) [µM] | IC50 (NCl-H526) [µM] | IC50 (U87MG) [µM] | IRS1 Ser-phosphorylation (IRS1 [2]) | IRS1 Ser-phosphorylation (IRS1 [1]) | Cellular IRS1 levels (IRS1 [3]) | IRS1 Ser-phosphorylation (shift up of IRS1 band) (IRS1 [3])
N#C/C(=C\c1cc(O)c(O)c(Br)c1)C(=S)NCc1cc(O)c(O)c(Br)c1 [Compound 6] | 2 | has no effect | > 10 | > 10 | > 10 | 6.8 | > 10 | 8.5 | 8.5 | 7.9 | 9.5 | > 10 | 7.7 | > 10 | > 10 | – | – | – | –
N#C/C(=C\c1cc(O)c(O)c(Br)c1)C(=S)NCc1cc(O)c(O)c(O)c1 [Compound 7] | 0.8 | induce a decrease in the cellular levels | 5.2 | 6.5 | 5.2 | 0.7 | 9.9 | 1.2 | 1.2 | 1.9 | 2.8 | 5.4 | 8.2 | > 10 | 6.9 | detected | increase in IRS1 Ser-phosphorylation | a decrease in cellular IRS1 levels | induced Ser-phosphorylation
N#C/C(=C\c1cc(O)c(O)c(I)c1)C(=S)NCc1cc(O)c(O)c(O)c1 [Compound 8] | 0.8 | – | 4.4 | 6.4 | 5.8 | 0.9 | 9 | 1.2 | 1.2 | 1.7 | 5.6 | 2.5 | > 10 | > 10 | 2.4 | trigger IRS1-ser phosphorylation; also recorded: detected | trigger IRS1-ser phosphorylation | a decrease in cellular IRS1 levels | induced Ser-phosphorylation
Oc1cc(CNC(=S)/C=C/c2cc(O)c(O)c(Br)c2)cc(O)c1O [Compound 9] | 0.2 | – | 2 | 3.3 | 3.8 | 1.4 | 6 | 0.6 | 0.6 | 1.4 | 1.6 | 1.7 | 6.1 | > 10 | 6.6 | trigger IRS1-ser phosphorylation; also recorded: detected | trigger IRS1-ser phosphorylation | a decrease in cellular IRS1 levels | induced Ser-phosphorylation
